The target in assay [1] is Nitric oxide synthase, inducible (Homo sapiens, UniProt P35228). The assay is described as follows: In vitro inhibition of inducible nitric oxide synthase.
The target of the next assay is Nitric oxide synthase 1 (Homo sapiens, UniProt P29475). The assay is described as follows: Concentration required to inhibit neuronal nitric oxide synthase.
The next assay concerns the target T1, Nitric oxide synthase 3 (Homo sapiens, UniProt P29474).
T1 sequence (P29474 whole entry): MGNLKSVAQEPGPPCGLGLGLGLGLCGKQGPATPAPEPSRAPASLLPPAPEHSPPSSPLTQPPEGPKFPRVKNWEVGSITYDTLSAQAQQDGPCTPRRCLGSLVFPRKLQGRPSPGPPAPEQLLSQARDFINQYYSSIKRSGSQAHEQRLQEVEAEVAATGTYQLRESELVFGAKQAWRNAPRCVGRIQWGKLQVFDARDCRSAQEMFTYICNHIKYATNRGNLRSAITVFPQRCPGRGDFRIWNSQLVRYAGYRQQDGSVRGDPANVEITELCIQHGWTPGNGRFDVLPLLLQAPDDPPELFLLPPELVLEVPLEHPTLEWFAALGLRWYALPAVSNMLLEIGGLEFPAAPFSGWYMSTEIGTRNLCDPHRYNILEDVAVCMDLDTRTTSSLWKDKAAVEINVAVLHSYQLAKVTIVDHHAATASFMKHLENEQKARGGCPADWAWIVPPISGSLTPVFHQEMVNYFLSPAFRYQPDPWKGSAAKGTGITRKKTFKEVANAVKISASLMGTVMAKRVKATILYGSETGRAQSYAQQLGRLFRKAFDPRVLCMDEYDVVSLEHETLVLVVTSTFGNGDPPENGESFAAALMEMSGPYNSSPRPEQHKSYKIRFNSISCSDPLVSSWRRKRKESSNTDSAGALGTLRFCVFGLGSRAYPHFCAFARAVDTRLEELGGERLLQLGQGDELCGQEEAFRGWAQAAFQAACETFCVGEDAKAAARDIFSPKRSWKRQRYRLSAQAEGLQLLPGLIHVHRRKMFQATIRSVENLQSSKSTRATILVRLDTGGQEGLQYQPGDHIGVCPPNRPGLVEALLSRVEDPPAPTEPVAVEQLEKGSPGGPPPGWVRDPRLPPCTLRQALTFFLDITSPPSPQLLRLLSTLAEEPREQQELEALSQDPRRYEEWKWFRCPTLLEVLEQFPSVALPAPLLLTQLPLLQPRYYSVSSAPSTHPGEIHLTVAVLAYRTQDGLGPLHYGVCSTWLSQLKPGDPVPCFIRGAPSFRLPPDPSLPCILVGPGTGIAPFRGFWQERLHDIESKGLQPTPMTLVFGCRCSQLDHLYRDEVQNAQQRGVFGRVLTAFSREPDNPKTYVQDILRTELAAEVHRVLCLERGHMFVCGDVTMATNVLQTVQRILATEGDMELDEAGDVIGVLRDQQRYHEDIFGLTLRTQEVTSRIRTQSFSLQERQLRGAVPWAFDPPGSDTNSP
Put plainly: In vitro inhibition of endothelial nitric oxide synthase.

Molecules are shown by their SMILES. Bounds are passed on as bounds.

Nitric oxide synthase 1, sequence (P29475 whole entry): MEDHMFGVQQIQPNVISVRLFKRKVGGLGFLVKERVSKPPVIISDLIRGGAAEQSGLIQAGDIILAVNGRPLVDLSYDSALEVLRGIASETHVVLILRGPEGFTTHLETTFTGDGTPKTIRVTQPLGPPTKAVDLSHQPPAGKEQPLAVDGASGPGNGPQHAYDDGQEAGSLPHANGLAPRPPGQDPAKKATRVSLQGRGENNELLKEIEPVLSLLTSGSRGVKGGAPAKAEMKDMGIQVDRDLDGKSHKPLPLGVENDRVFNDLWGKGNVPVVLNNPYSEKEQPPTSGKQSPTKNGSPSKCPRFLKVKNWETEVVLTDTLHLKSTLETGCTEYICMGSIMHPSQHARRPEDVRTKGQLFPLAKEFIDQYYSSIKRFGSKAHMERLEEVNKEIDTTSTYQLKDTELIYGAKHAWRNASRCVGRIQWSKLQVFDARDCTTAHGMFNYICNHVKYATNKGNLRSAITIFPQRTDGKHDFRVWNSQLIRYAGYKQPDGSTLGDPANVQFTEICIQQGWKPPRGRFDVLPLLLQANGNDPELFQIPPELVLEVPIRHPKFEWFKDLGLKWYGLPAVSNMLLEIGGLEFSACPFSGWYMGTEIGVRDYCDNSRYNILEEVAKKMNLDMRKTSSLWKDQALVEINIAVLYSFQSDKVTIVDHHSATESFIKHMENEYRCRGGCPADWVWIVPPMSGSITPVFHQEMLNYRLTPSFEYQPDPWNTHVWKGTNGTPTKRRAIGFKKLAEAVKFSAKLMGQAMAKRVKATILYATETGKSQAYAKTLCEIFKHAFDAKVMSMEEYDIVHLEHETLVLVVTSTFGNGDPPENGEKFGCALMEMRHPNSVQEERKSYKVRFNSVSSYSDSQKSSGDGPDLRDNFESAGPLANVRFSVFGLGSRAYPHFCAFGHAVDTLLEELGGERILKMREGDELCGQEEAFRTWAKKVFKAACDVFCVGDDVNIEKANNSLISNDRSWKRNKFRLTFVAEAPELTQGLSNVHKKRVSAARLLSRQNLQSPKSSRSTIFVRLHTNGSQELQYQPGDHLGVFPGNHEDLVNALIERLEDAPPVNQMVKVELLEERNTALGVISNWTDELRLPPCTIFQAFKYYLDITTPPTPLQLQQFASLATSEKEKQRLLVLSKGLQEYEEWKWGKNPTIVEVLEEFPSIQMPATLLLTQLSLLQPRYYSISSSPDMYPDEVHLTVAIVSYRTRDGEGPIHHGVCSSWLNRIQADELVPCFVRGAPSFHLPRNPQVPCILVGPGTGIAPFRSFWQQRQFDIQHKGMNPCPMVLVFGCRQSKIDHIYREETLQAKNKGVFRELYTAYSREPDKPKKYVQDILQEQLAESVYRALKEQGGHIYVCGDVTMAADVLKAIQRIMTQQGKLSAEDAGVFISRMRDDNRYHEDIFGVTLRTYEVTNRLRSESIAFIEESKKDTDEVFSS
Nitric oxide synthase, inducible, sequence (P35228 whole entry): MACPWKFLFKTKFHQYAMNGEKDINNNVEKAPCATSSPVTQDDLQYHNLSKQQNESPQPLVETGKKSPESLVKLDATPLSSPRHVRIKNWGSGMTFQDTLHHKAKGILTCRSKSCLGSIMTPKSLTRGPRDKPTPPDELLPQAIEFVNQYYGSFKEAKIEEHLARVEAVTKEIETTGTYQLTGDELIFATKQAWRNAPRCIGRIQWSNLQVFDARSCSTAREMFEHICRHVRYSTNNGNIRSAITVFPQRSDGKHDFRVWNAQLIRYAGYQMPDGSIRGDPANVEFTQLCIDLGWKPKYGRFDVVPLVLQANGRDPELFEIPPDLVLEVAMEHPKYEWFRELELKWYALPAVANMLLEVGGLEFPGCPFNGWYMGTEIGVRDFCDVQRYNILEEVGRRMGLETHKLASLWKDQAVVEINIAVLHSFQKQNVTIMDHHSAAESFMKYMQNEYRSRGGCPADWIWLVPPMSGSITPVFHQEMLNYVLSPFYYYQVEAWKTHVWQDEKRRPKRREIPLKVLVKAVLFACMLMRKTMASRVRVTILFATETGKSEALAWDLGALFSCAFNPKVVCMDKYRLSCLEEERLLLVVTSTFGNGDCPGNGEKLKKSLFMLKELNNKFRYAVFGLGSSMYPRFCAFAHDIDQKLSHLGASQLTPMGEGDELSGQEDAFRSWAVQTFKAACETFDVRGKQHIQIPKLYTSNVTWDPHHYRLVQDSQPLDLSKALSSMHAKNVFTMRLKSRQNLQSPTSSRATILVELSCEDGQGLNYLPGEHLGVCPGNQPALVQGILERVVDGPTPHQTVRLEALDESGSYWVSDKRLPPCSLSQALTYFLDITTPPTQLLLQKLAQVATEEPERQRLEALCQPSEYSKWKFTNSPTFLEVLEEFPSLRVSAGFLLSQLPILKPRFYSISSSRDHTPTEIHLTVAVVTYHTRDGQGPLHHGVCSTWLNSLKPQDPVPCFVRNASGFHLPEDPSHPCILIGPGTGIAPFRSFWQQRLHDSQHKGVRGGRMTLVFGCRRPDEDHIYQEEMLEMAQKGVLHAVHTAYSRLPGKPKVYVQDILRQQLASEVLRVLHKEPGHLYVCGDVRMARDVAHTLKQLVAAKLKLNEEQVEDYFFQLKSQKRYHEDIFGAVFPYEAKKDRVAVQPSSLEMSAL

Regarding `NC1=Nc2ccc(Cl)cc2[C@H]2CCC[C@@H]12`, the values for the IC50 (in assay [1]; at Nitric oxide synthase 1; against Nitric oxide synthase 3) were 5.7 µM, 0.14 µM and 6.2 µM, respectively.

With `NC1=Nc2ccc(C(F)(F)F)cc2[C@H]2CCC[C@@H]12`, the IC50 in assay [1] was determined as 89 µM; against Nitric oxide synthase 1, 1.6 µM; at Nitric oxide synthase 3 it was 57 µM.

Turning to `NC1=Nc2c(F)cc(Cl)cc2[C@H]2CCC[C@@H]12`, the figures for the IC50 (in assay [1]; against Nitric oxide synthase 1; against Nitric oxide synthase 3) were 35 µM, 0.73 µM and 72 µM, respectively.

As to `CNC1=Nc2ccccc2[C@H]2CCC[C@@H]12`, the IC50 on Nitric oxide synthase 1 is over 100 µM.

`NC1=Nc2c(F)cccc2[C@H]2CCC[C@@H]12`: the results for the IC50 (in assay [1]; at Nitric oxide synthase 1; on Nitric oxide synthase 3) were 2.3 µM, 0.17 µM and 5.8 µM, respectively.

At Nitric oxide synthase 1, `c1ccc2c(c1)NC[C@@H]1CCC[C@H]21` yielded an IC50 of over 200 µM.

`NC1=Nc2cc(F)ccc2[C@H]2CCC[C@@H]12`: the results for the IC50 (in assay [1]; against Nitric oxide synthase 1; against Nitric oxide synthase 3) were 1.1 µM, 0.13 µM and 2.3 µM, respectively.

Molecule `NC1=Nc2ccccc2[C@H]2CCCC[C@@H]12` returned an IC50 against Nitric oxide synthase 1 of 6.8 µM.

For the molecule `NC1=Nc2ccccc2[C@H]2COC[C@@H]12`, the IC50 in assay [1] is 4.1 µM; at Nitric oxide synthase 1, 0.13 µM; at Nitric oxide synthase 3, 0.96 µM.

Regarding `Cc1ccc2c(c1)N=C(N)[C@@H]1CCC[C@H]21`, the 50% inhibitory concentration (IC50) was determined as 1.1 µM in assay [1], 0.19 µM on Nitric oxide synthase 1 and 6.2 µM at Nitric oxide synthase 3.

On to `NC1=Nc2ccccc2[C@H]2CCC[C@@H]12`, for which the values for the IC50 (in assay [1]; against Nitric oxide synthase 1; against Nitric oxide synthase 3) were 2.7 µM, 0.16 µM and 3.3 µM, respectively.

Take `NC1=Nc2cc([N+](=O)[O-])ccc2[C@H]2CCC[C@@H]12`: the figures for the 50% inhibitory concentration (IC50) (in assay [1]; at Nitric oxide synthase 1; at Nitric oxide synthase 3) were 2.6 µM, 0.31 µM and 12 µM, respectively.

Consider `N#Cc1ccc2c(c1)[C@H]1CCC[C@H]1C(N)=N2`, for which the 50% inhibitory concentration (IC50) was found to be 32 µM in assay [1], 0.64 µM against Nitric oxide synthase 1 and 54 µM on Nitric oxide synthase 3.

For `Cc1ccc2c(c1)[C@H]1CCC[C@H]1C(N)=N2`, the concentration for half-maximal inhibition (IC50) was determined as 12 µM in assay [1], 0.5 µM at Nitric oxide synthase 1 and 21 µM on Nitric oxide synthase 3.

As to `NC1=Nc2ccc(Br)cc2[C@H]2CCC[C@@H]12`, the IC50 was 14 µM in assay [1], 0.31 µM on Nitric oxide synthase 1 and 17 µM against Nitric oxide synthase 3.

On to `ONC1=Nc2ccccc2[C@H]2CCC[C@@H]12`, for which, on Nitric oxide synthase 1, the IC50 is over 100 µM.

On to `COc1ccc2c(c1)[C@H]1CCC[C@H]1C(N)=N2`, for which the figures for the half-inhibitory concentration (IC50) (in assay [1]; against Nitric oxide synthase 1; against Nitric oxide synthase 3) were 13 µM, 0.64 µM and 24 µM, respectively.

Take `COc1ccc2c(c1)N=C(N)[C@@H]1CCC[C@H]21`: the IC50 was 1.4 µM in assay [1], 0.24 µM against Nitric oxide synthase 1 and 4.1 µM at Nitric oxide synthase 3.

On to `NC1=Nc2ccc(F)cc2[C@H]2CCC[C@@H]12`, for which the 50% inhibitory concentration (IC50) in assay [1] turned out to be 1.7 µM; against Nitric oxide synthase 1, 0.11 µM; on Nitric oxide synthase 3, 2.3 µM.

`NC1=Nc2c(ccc(F)c2F)[C@H]2CCC[C@@H]12`: the figures for the IC50 (in assay [1]; against Nitric oxide synthase 1; against Nitric oxide synthase 3) were 5.1 µM, 0.68 µM and 20 µM, respectively.

For `NC1=Nc2c(cc(Cl)c(F)c2F)[C@H]2CCC[C@@H]12`, the 50% inhibitory concentration (IC50) is 78 µM in assay [1], 2.1 µM against Nitric oxide synthase 1 and over 200 µM at Nitric oxide synthase 3.

Take `NC1=Nc2ccccc2N2CCCC12` (stereo unspecified): the IC50 against Nitric oxide synthase 1 was 3.3 µM.

With `NC1=Nc2ccccc2[C@H]2CCCCC[C@@H]12`, at Nitric oxide synthase 1, half-maximal inhibition (IC50) required 100 µM.

As for `NC1=Nc2c(Cl)cc(Cl)cc2[C@H]2CCC[C@@H]12`, the results for the IC50 (in assay [1]; against Nitric oxide synthase 1; against Nitric oxide synthase 3) were 30 µM, 4.1 µM and over 200 µM, respectively.

On to `NC1=Nc2ccc([N+](=O)[O-])cc2[C@H]2CCC[C@@H]12`, for which the concentration for half-maximal inhibition (IC50) was determined as 15 µM in assay [1], 0.25 µM against Nitric oxide synthase 1 and 34 µM on Nitric oxide synthase 3.

In the case of `COC(=O)[C@@H](N)CCCNC(=N)N[N+](=O)[O-]` [L-NAME], the 50% inhibitory concentration (IC50) in assay [1] worked out at 8 µM; against Nitric oxide synthase 1, 1.6 µM; at Nitric oxide synthase 3, 1.5 µM.

The IC50 is the concentration needed to halve the response being measured. A low value points to greater potency.

The values are drawn from ChEMBL document CHEMBL1135323, “Dihydroquinolines as novel n-NOS inhibitors” (Bioorg Med Chem Lett, 2002).
